{
  "source": "patent US9138447B2",
  "about": "“Antimicrobial agent and method for the production thereof” (UNIVERSITY COLLEGE CARDIFF CONSULTANTS LTD., priority 2008, dated 2015)",
  "test_system": "methicillin resistant Staphylococcus aureus (MRSA)",
  "experiment": "Growth inhibition of MRSA",
  "type": "cell-based",
  "source_text": "Mupirocin (Pseudomonic acid A, or Bactroban) is the frontline topical antibiotic used to combat skin infections with gram positive bacteria and is also used in the eradication of MRSA from infected people. It was originally produced as Bactroban by GlaxoSmithKline, but now it is available generically within a number of different commercial formulations. MRSA strain 52 is susceptible to both the P. fluorescens mupirocin (Panel A) and Vietnamycin (BVAS; Panel B). However, MRSA strain 49 is representative of a number of emerging S. aureus strains that are resistant to mupirocin (Panel C).",
  "data": [
    {"smiles": "C/C(=C\\C(=O)OCCCCCCCCC(=O)O)C[C@@H]1OC[C@H](C[C@@H]2O[C@H]2[C@@H](C)[C@H](C)O)[C@@H](O)[C@H]1O", "note": "[mupirocin, Mupirocin]", "values": [
      {"measurement": "Growth inhibition of mupirocin resistant MRSA (strain 49)", "setting": "mupirocin resistant strain", "result": "resistant"},
      {"measurement": "Growth inhibition of MRSA strain 52", "setting": "mupirocin susceptible strain, producer bacterium overlay", "result": "susceptible"}
    ]}
  ]
}
